Patent US20110262442A1, “COMPOSITIONS FOR TREATING CNS DISORDERS” (Adenios, Inc., priority 2009, published 2011)

Experiments:
blood brain barrier [1] = assay: Fluorimetric analysis of labeled dextrans in brain after i.v. drug administration; assay type: in vivo, mice
Protocol: C57BL/6 mice from Jackson Laboratories were used as wild types. All mice used were aged 7-9 weeks and weighed between 20-25 g. All rats were aged 8 weeks and weighed 200-220 g. Mice and rats were bred and housed under specific pathogen-free conditions.
The adenosine receptor agonists NECA, CCPA and CGS 21860 were purchased from Tocris. Each was dissolved in DMSO then diluted in PBS to the desired concentration; in most cases final DMSO concentrations were <0.5% (vol/vol). For vehicle controls, DMSO was diluted in PBS to the same concentration. Dehydrated dextrans labeled with either FITC or Texas Red were purchased from Invitrogen and re-suspended in PBS to 10 mg ml^−1. All experiments involving dextran injection used 0.5 mg dextran in PBS. In experiments where drug and dextran were injected concomitantly, 0.5 mg of dextran was mixed with the drug to the desired concentration in a final volume of 200 μl. All injections were retro-orbital i.v. with a 27-gauge needle. In the SCH 58261 experiment, groups were administered vehicle or SCH 58261 for 4 d. Vehicle/drug and dextrans were injected on day 5 and tissues were collected 3 h after vehicle/drug administration. In Lexiscan experiments, Lexiscan was administered i.v. with 3 injections, 5 min apart and tissues were collected at 15 min unless otherwise indicated.
In dose-response experiments and experiments with the A1 AR and A2A AR knock-out mice, drugs and dextrans were injected concomitantly. After 3 h, the mice were anesthetized with ketamine/xylazine and subjected to a nose cone containing isoflurane. They were perfused with 25-50 ml ice-cold PBS through the left ventricle of the heart then decapitated. Their brains were removed, weighed and frozen for later analysis.
Ice-cold 50 mM Tris-Cl (pH 7.6) was added to frozen brains (100 μl per 100 mg brain) and were to thawed on ice. They were homogenized manually with ˜45 strokes of a dounce homogenizer in plastic 1.5 ml microfuge tubes then spun at 16.1 g in a microfuge for 30 min at room temperature (rt). The supernatants were transferred to new tubes and an equal volume absolute methanol was added. The samples were spun again at 16.1 g for 30 min at rt. Supernatant (200 μl) was transferred to a Corning costar 96 well black polystyrene assay plate (clear bottom). Additionally, a series of standards containing 0.001-10 μg ml^−1 dextran in 50% Tris-Cl/50% absolute methanol (vol/vol) was added to each plate. Absolute concentrations of dextrans were derived from these standard curves. Fluorimetric analysis was performed on a BioTek Synergy 4. FITC-dextran was detected at 488/519 (excitation/emission) and Texas Red-dextran was detected at 592/618.

blood brain barrier [2] = assay: Fluorimetric analysis of labeled dextrans in brain after i.v. drug administration, rats; assay type: in vivo; details: i.v. administration, 10,000 Da dextrans
Protocol: C57BL/6 mice from Jackson Laboratories were used as wild types. All mice used were aged 7-9 weeks and weighed between 20-25 g. All rats were aged 8 weeks and weighed 200-220 g. Mice and rats were bred and housed under specific pathogen-free conditions. The adenosine receptor agonists NECA, CCPA and CGS 21860 were purchased from Tocris. Each was dissolved in DMSO then diluted in PBS to the desired concentration; in most cases final DMSO concentrations were <0.5% (vol/vol). For vehicle controls, DMSO was diluted in PBS to the same concentration. Dehydrated dextrans labeled with either FITC or Texas Red were purchased from Invitrogen and re-suspended in PBS to 10 mg ml^-1. All experiments involving dextran injection used 0.5 mg dextran in PBS. In experiments where drug and dextran were injected concomitantly, 0.5 mg of dextran was mixed with the drug to the desired concentration in a final volume of 200 μl. All injections were retro-orbital i.v. with a 27-gauge needle. In the SCH 58261 experiment, groups were administered vehicle or SCH 58261 for 4 d. Vehicle/drug and dextrans were injected on day 5 and tissues were collected 3 h after vehicle/drug administration. […] FITC-dextran was detected at 488/519 (excitation/emission) and Texas Red-dextran was detected at 592/618.

brain endothelial cells = assay: Actin stress fiber induction in brain endothelial cells; assay type: cell-based
Protocol: To test this brain endothelial cells were treated with either CCPA (to agonize A1 adenosine receptors) or […] (to agonize the A2A adenosine receptor).

blood brain barrier [3] = assay: FITC-Dextran extravasation through the brain endothelium (brain sections); assay type: in vivo, mice; details: wild type mice, FIG. 16
Protocol: In order to examine the effects of caffeine, a general adenosine receptor antagonist, on blood brain barrier permeability, mice were fed caffeine for several days and then injected with FITC Dextran, commonly used to assess endothelial permeability.
More particularly, mice were fed 0.6 g/l caffeine (Sigma, St. Louis, Mo.) in water or regular water ad lib for five days. Mice were injected IP with FITC Dextran (10,000 MW, Molecular Probes, Eugene, Oreg.) and after 30 minutes mice were perfused with ice cold PBS via the left ventricle. Brains were removed and snap frozen in OCT (Tissue Tek, Torrance, Calif.) and stored at −80° C. until sectioning. Tissue sections (5 μm) were stained with hematoxylin for light microscopy and with DAPI for a fluorescent counterstain.

[4] = system: CNS lymphocyte infiltration; assay: Immunohistochemistry of CD4+ infiltrating lymphocytes in brain and spinal cord after EAE induction; assay type: in vivo; details: wild type mice, day 15 post-EAE induction; 2 mg/kg daily; vs DMSO treated
Text: (§1) Cd73^−/− mice have been previously described (Thompson et al., “Crucial Role for Ecto-5′-Nucleotidase (CD73) in Vascular Leakage During Hypoxia,” J. Exp. Med. 200:1395-1405 (2004), which is hereby incorporated by reference in its entirety) and have been backcrossed to C57BL/6 for 14 generations. Cd73 mice have no overt susceptibility to infection and appear normal based on the size and cellular composition of their lymphoid organs and their T and B cell responses in in vivo and in vitro assays (Thompson et al., “Crucial Role for Ecto-5′-Nucleotidase (CD73) in Vascular Leakage During Hypoxia,” J. Exp. Med. 200:1395-1405 (2004), which is hereby incorporated by reference in its entirety). C57BL/6 and tcrα^−/− mice on the C57BL/6 background were purchased from The Jackson Laboratories. Mice were bred and housed under specific pathogen-free conditions at Cornell University or the University of Turku. For adenosine receptor blockade experiments, mice were given drinking water supplemented with 0.6 g/L of caffeine (Sigma) or 2 mg/kg SCH58261 (1 mg/kg s.c. and 1 mg/kg i.p.) in DMSO (45% vol. in PBS) or 45% DMSO alone starting 1 day before EAE induction and continuing throughout the experiment. All procedures performed on mice were approved by the relevant animal review committee. […]

[5] = system: ICAM-1 on the choroid plexus; assay: Immunohistochemistry of ICAM-1 expression at the choroid plexus after EAE induction; assay type: in vivo; details: wild type mice, day 15 post-EAE induction; 2 mg/kg daily; vs DMSO
Text: as §1

[6] = system: Experimental Autoimmune Encephalomyelitis (EAE); assay: MOG-induced EAE induction and daily scoring; assay type: in vivo, mice; details: wild type mice; 2 mg/kg (1 mg/kg i.p. and 1 mg/kg s.c.) 1 day prior to EAE induction and daily for 30 days; vs DMSO alone
Text: Cd73^−/− mice have been previously described (Thompson et al., “Crucial Role for Ecto-5′-Nucleotidase (CD73) in Vascular Leakage During Hypoxia,” J. Exp. Med. 200:1395-1405 (2004), which is hereby incorporated by reference in its entirety) and have been backcrossed to C57BL/6 for 14 generations. Cd73 mice have no overt susceptibility to infection and appear normal based on the size and cellular composition of their lymphoid organs and their T and B cell responses in in vivo and in vitro assays (Thompson et al., “Crucial Role for Ecto-5′-Nucleotidase (CD73) in Vascular Leakage During Hypoxia,” J. Exp. Med. 200:1395-1405 (2004), which is hereby incorporated by reference in its entirety). C57BL/6 and tcrα^−/− mice on the C57BL/6 background were purchased from The Jackson Laboratories. Mice were bred and housed under specific pathogen-free conditions at Cornell University or the University of Turku. For adenosine receptor blockade experiments, mice were given drinking water supplemented with 0.6 g/L of caffeine (Sigma) or 2 mg/kg SCH58261 (1 mg/kg s.c. and 1 mg/kg i.p.) in DMSO (45% vol. in PBS) or 45% DMSO alone starting 1 day before EAE induction and continuing throughout the experiment. All procedures performed on mice were approved by the relevant animal review committee.
EAE was induced by subjecting mice to the myelin oligodendrocyte glycoprotein (“MOG”) EAE-inducing regimen as described in Swanborg, “Experimental Autoimmune Encephalomyelitis in Rodents as a Model for Human Demyelinating Disease,” Clin. Immunol. Immunopathol. 77:4-13 (1995) and Bynoe et al., “Epicutaneous Immunization with Autoantigenic Peptides Induces T Suppressor Cells that Prevent Experimental Allergic Encephalomyelitis,” Immunity 19:317-328 (2003), which are hereby incorporated by reference in their entirety. Briefly, a 1:1 emulsion of MOG35-55 peptide (3 mg/ml in PBS) (Invitrogen) and complete Freund's adjuvant (CFA, Sigma) was injected subcutaneously (50 μl) into each flank. Pertussis toxin (PTX, 20 ng) (Biological Laboratories Inc.) was given intravenously (200 μl in PBS) at the time of immunization and again 2 days later. Mice were scored daily for EAE based on disease symptom severity; 0=no disease, 0.5-1=weak/limp tail, 2=limp tail and partial hind limb paralysis, 3=total hind limb paralysis, 4=both hind limb and fore limb paralysis, 5=death. Mice with a score of 4 were euthanized.

| Compound | magnitude of increased BBB permeability compared with NECA administration (blood brain barrier [1]; i.v. administration) | BBB permeability to 10,000 Da dextrans (blood brain barrier [1]; mice, i.v., 3 injections 5 min apart, tissues collected at 15 min) | time after which FITC-dextran was detectable in the brain (blood brain barrier [1]; mice, single i.v. injection) [min] | BBB permeability (blood brain barrier [2]) | actin stress fibers compared to vehicle alone (brain endothelial cells) | FITC-Dextran extravasation across the blood brain barrier (blood brain barrier [3]) | frequency of CD4+ lymphocytes in the brain and spinal cord [4] | entry of 10,000 Da FITC-dextran into brain (blood brain barrier [1]; WT mice, intraperitoneal administration for 4 d, dextran on day 5) | ICAM-1 expression on the choroid plexus following EAE induction [5] | EAE development [6] |
| --- | --- | --- | --- | --- | --- | --- | --- | --- | --- | --- |
| CNC(=O)c1cnn(-c2nc(N)c3ncn([C@@H]4O[C@H](CO)[C@@H](O)[C@H]4O)c3n2)c1 [Lexiscan] | much greater | increase BBB permeability to 10,000 Da dextrans | 5 | increased BBB permeability in rats | induction of actin stress fibers was observed |  |  |  |  |  |
| Nc1nc2c(cnn2CCc2ccccc2)c2nc(-c3ccco3)nn12 [SCH58261, 2-(2-Furanyl)-7-(2-phenylethyl)-7H-pyrazolo[4,3-e][1,2,4]triazolo[1,5-c]pyrimidin-5-amine] |  |  |  |  |  | inhibit FITC-Dextran extravasation | significantly lower frequency | significantly decreased entry | prevented the up regulation of ICAM-1 | dramatically protected against EAE development |
